In ChEMBL document CHEMBL1201862, “PubChem BioAssay data set” (2004):
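Five compound concentrations were applied to cells in 96-well plates for 48 hours; endpoints were derived by simple linear interpolation of the resulting dose-response curve. GI50: concentration for 50% inhibition of growth.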 Active and inactive are the calls of the source. Rule as the data show it: active = GI50 up to about 1.1 µM and inactive = higher.

What was measured:
Assay in all cases: DTP human tumour cell line panel, 48 h
DMS-114 = system: DMS-114
HOP-18 = system: HOP-18
SF-268 = system: SF-268
EKVX = system: EKVX
A549 = system: A549
SNB-19 = system: SNB-19
XF498 = system: XF498
NCI-H226 = system: NCI-H226
HCT-15 = system: HCT-15
UACC-62 = system: UACC-62
DLD-1 = system: DLD-1
M19-MEL = system: M19-MEL
DMS-273 = system: DMS-273
SNB-75 = system: SNB-75
PC-3 = system: PC-3
MDA-N = system: MDA-N
MDA-MB-435 = system: MDA-MB-435
T47D = system: T47D
Hs-578T = system: Hs-578T
ACHN = system: ACHN

Structure (SMILES) | GI50 (DMS-114) | GI50 (HOP-18) | GI50 (SF-268) | GI50 (EKVX) | GI50 (A549) | GI50 (SNB-19) | GI50 (XF498) | GI50 (NCI-H226) | GI50 (HCT-15) [µM] | GI50 (UACC-62) | GI50 (DLD-1) | GI50 (M19-MEL) | GI50 (DMS-273) | GI50 (SNB-75) | GI50 (PC-3) | GI50 (MDA-N) | GI50 (MDA-MB-435) | GI50 (T47D) | GI50 (Hs-578T) | GI50 (ACHN)
Cc1ccc2nc3c(C(=O)NCCN(C)C)cccc3cc2c1 | 1.53 µM (inactive) | 1.46 µM (inactive) | 1.26 µM (inactive) | 0.802 µM (active) | 1.33 µM (inactive) | 2.04 µM (inactive) | 1.8 µM (inactive) | 1.45 µM (inactive) | 0.834 | 2.35 µM (inactive) | 2.01 µM (inactive) | 1.95 µM (inactive) | 1.5 µM (inactive) | 2.99 µM (inactive) | – | – | – | – | – | –
CN1C2CC(=O)CC1[C@H](O)[C@@H]2O | – | – | > 100 µM (inactive) | > 100 µM (inactive) | – | > 100 µM (inactive) | – | > 100 µM (inactive) | > 100 | – | – | – | – | – | > 100 µM (inactive) | > 100 µM (inactive) | > 100 µM (inactive) | > 100 µM (inactive) | – | –
COc1cc2c(cc1OC)C(=O)/C(=C/c1cc(OC)c(OC)c(OC)c1)C2 | – | – | – | – | – | > 100 µM (inactive) | – | > 100 µM (inactive) | > 100 | > 100 µM (inactive) | – | – | – | > 100 µM (inactive) | > 100 µM (inactive) | > 100 µM (inactive) | > 100 µM (inactive) | 90.2 µM (inactive) | > 100 µM (inactive) | –
COC(=O)C(NC(=O)c1ccccc1)C(c1ccc(Cl)cc1)P(=O)(OC)OC (stereo not drawn) | – | – | > 100 µM (inactive) | > 100 µM (inactive) | > 100 µM (inactive) | > 100 µM (inactive) | > 100 µM (inactive) | > 100 µM (inactive) | > 100 | > 100 µM (inactive) | > 100 µM (inactive) | > 100 µM (inactive) | > 100 µM (inactive) | > 100 µM (inactive) | – | – | – | – | – | > 100 µM (inactive)
CC(=O)O[C@H]1CC[C@H]2[C@@H]3CC[C@H]4Nc5c(cnn5S(C)(=O)=O)C[C@]4(C)[C@H]3CC[C@]12C | – | – | – | – | – | 36.7 µM (inactive) | – | 53.5 µM (inactive) | > 100 | 33.7 µM (inactive) | – | – | – | 37.2 µM (inactive) | 64.4 µM (inactive) | > 100 µM (inactive) | > 100 µM (inactive) | 37 µM (inactive) | 45.6 µM (inactive) | –
O=S1(=O)C[C@@H](NCc2ccccc2)[C@H](NCc2ccccc2)C1 | – | – | > 100 µM (inactive) | > 100 µM (inactive) | > 100 µM (inactive) | > 100 µM (inactive) | – | > 100 µM (inactive) | – | > 100 µM (inactive) | – | – | – | > 100 µM (inactive) | > 100 µM (inactive) | > 100 µM (inactive) | > 100 µM (inactive) | > 100 µM (inactive) | > 100 µM (inactive) | > 100 µM (inactive)
COc1ccc2c3c1O[C@H]1C[C@@H](O)C=C[C@@]31CCN(C)C2 [GALANTAMINE] | > 150 µM (inactive) | > 150 µM (inactive) | 87.7 µM (inactive) | > 150 µM (inactive) | > 150 µM (inactive) | > 150 µM (inactive) | > 150 µM (inactive) | > 150 µM (inactive) | > 150 | > 150 µM (inactive) | 50 µM (inactive) | > 150 µM (inactive) | > 150 µM (inactive) | > 150 µM (inactive) | – | – | – | – | – | –
CN1C2CCC1C(CO)C(=O)C2 (stereo not drawn) | – | – | > 100 µM (inactive) | – | – | – | – | > 100 µM (inactive) | 24.9 | > 100 µM (inactive) | – | – | – | > 100 µM (inactive) | > 100 µM (inactive) | – | > 100 µM (inactive) | 21 µM (inactive) | > 100 µM (inactive) | 38.6 µM (inactive)
CC1OC1C(=O)C1(O)C(C)C(O)C23OC2(C(O)c2c(O)cccc2C3=O)C1O (stereo not drawn) [CERVICARCIN] | 0.048 µM (active) | 0.0605 µM (active) | 0.0984 µM (active) | 0.0908 µM (active) | 0.0488 µM (active) | 0.153 µM (active) | 0.253 µM (active) | 0.31 µM (active) | 0.195 | 0.245 µM (active) | 0.167 µM (active) | 0.0933 µM (active) | 0.184 µM (active) | 0.212 µM (active) | – | – | – | – | – | –
O=C1CN2C(Cl)(Cl)C2(c2ccccc2)c2cc(Cl)ccc2N1CC(F)(F)F (stereo not drawn) | 27.2 µM (inactive) | – | 38.4 µM (inactive) | 32.2 µM (inactive) | – | – | – | 26.2 µM (inactive) | 25.8 | 56.1 µM (inactive) | 16.4 µM (inactive) | 38.3 µM (inactive) | 24.8 µM (inactive) | 13 µM (inactive) | – | – | – | – | – | 33.7 µM (inactive)
